# Results as given in publication PMC6409085, “Three odorant-binding proteins are involved in the behavioral response of Sogatella furcifera to rice plant volatiles” (PeerJ, 2019).
# “And” between values parts separate entries of the source, which are not always exact repeats. Equal values may be shown once.
# Key:
# SfurOBP1 = SfurOBP1 (Sogatella furcifera, UniProt V5T8N5); test: biochemical; assay type: binding; details: for Fluorescence competitive binding assay, fluorescence intensity: OBP1, three replicate columns
# SfurOBP1, sequence (V5T8N5 entry or part of it): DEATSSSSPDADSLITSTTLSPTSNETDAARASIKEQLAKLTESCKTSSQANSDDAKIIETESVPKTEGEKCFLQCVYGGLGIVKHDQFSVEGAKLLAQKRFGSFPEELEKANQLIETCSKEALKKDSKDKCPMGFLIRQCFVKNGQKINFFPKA
# Method in brief: (§1)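 Fluorescence competitive binding with 1-NPN as reporter: 2.0 µM protein and 2.0 µM 1-NPN in 50 mM Tris-HCl pH 7.4, odorant added at 2–20 µM final. Excitation 337 nm, emission 390–490 nm read 2 min after addition, triplicates. Ki = IC50/(1 + [1-NPN]/K1-NPN).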
# SfurOBP11 = SfurOBP11 (Sogatella furcifera, UniProt V5T6E3); test: biochemical; assay type: binding
# SfurOBP11, sequence (V5T6E3 entry or part of it): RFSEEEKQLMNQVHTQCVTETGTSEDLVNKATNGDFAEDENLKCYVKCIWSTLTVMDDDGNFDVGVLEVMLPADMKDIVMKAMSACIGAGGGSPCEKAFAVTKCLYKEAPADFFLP
# Method in brief: as §1
# SfurOBP3 = SfurOBP3 (Sogatella furcifera, UniProt V5T818); test: biochemical; assay type: binding; details: for Fluorescence competitive binding assay, fluorescence intensity: OBP3, three replicate columns
# SfurOBP3, sequence (V5T818 entry or part of it): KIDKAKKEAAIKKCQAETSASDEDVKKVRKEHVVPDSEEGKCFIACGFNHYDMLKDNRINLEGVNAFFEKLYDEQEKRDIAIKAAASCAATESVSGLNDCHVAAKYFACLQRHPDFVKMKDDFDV
# Method in brief: as §1
# SfurOBP2 = SfurOBP2 (Sogatella furcifera, UniProt V5T759); test: biochemical; assay type: binding
# SfurOBP2, sequence (V5T759 entry or part of it): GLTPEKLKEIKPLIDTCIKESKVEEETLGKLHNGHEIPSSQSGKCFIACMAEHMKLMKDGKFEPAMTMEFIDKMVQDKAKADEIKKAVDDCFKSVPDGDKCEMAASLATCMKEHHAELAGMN
# Method in brief: as §1
# S. furcifera adults = test: Y-tube olfactometer behavioral trials; assay type: in vivo, Sogatella furcifera; details: odorant 50 µL/L vs hexane; adults
# Method in brief: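 Single S. furcifera adults (2 days post-emergence, starved 0.5 h) chose between odorant (100 µL of 50 µL/L on filter paper) and hexane control in a glass Y-tube, charcoal-filtered humidified air 300 mL/min per arm, 25 ± 1 °C, 50% RH. Choice scored if insect passed half an arm and stayed >1 min within 10 min; 45 insects per compound, chi-squared test.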
compound,measurement,setting,value
CC/C=C\CCO [(Z)-3-hexenol],IC50,SfurOBP1,> 20 µM
same,"Fluorescence competitive binding assay, fluorescence intensity",SfurOBP1; ligand concentration 2 (μM),6275 and 5762 and 6097
same,"Fluorescence competitive binding assay, fluorescence intensity",SfurOBP1; ligand concentration 4 (μM),7853 and 8652 and 8403
same,"Fluorescence competitive binding assay, fluorescence intensity",SfurOBP1; ligand concentration 6 (μM),6992 and 6382 and 6355
same,"Fluorescence competitive binding assay, fluorescence intensity",SfurOBP1; ligand concentration 8 (μM),6419 and 7196 and 6808
same,"Fluorescence competitive binding assay, fluorescence intensity",SfurOBP1; ligand concentration 10 (μM),6561 and 6490 and 6439
same,"Fluorescence competitive binding assay, fluorescence intensity",SfurOBP1; ligand concentration 12 (μM),6242 and 6220 and 5811
same,"Fluorescence competitive binding assay, fluorescence intensity",SfurOBP1; ligand concentration 14 (μM),5437 and 6035 and 6831
same,"Fluorescence competitive binding assay, fluorescence intensity",SfurOBP1; ligand concentration 16 (μM),6974 and 6042 and 5510
same,"Fluorescence competitive binding assay, fluorescence intensity",SfurOBP1; ligand concentration 18 (μM),6021 and 6159 and 6506
same,"Fluorescence competitive binding assay, fluorescence intensity",SfurOBP1; ligand concentration 20 (μM),6648 and 5435 and 5963
same,IC50,SfurOBP11,19.7 µM
same,"Fluorescence intensity, fluorescence competitive binding assay, OBP11","SfurOBP11; ligand concentration 2, replicate 1",23102
same,"Fluorescence intensity, fluorescence competitive binding assay, OBP11","SfurOBP11; ligand concentration 2, replicate 2",23122
same,"Fluorescence intensity, fluorescence competitive binding assay, OBP11","SfurOBP11; ligand concentration 2, replicate 3",23081
same,"Fluorescence intensity, fluorescence competitive binding assay, OBP11","SfurOBP11; ligand concentration 4, replicate 1",21959
same,"Fluorescence intensity, fluorescence competitive binding assay, OBP11","SfurOBP11; ligand concentration 4, replicate 2",22135
same,"Fluorescence intensity, fluorescence competitive binding assay, OBP11","SfurOBP11; ligand concentration 4, replicate 3",21783
same,"Fluorescence intensity, fluorescence competitive binding assay, OBP11","SfurOBP11; ligand concentration 6, replicate 1",21447
same,"Fluorescence intensity, fluorescence competitive binding assay, OBP11","SfurOBP11; ligand concentration 6, replicate 2",20794
same,"Fluorescence intensity, fluorescence competitive binding assay, OBP11","SfurOBP11; ligand concentration 6, replicate 3",21118
same,"Fluorescence intensity, fluorescence competitive binding assay, OBP11","SfurOBP11; ligand concentration 8, replicate 1",18781
same,"Fluorescence intensity, fluorescence competitive binding assay, OBP11","SfurOBP11; ligand concentration 8, replicate 2",21016
same,"Fluorescence intensity, fluorescence competitive binding assay, OBP11","SfurOBP11; ligand concentration 8, replicate 3",21554
same,"Fluorescence intensity, fluorescence competitive binding assay, OBP11","SfurOBP11; ligand concentration 10, replicate 1",18621
same,"Fluorescence intensity, fluorescence competitive binding assay, OBP11","SfurOBP11; ligand concentration 10, replicate 2",21154
same,"Fluorescence intensity, fluorescence competitive binding assay, OBP11","SfurOBP11; ligand concentration 10, replicate 3",19973
same,"Fluorescence intensity, fluorescence competitive binding assay, OBP11","SfurOBP11; ligand concentration 12, replicate 1",17455
same,"Fluorescence intensity, fluorescence competitive binding assay, OBP11","SfurOBP11; ligand concentration 12, replicate 2",20348
same,"Fluorescence intensity, fluorescence competitive binding assay, OBP11","SfurOBP11; ligand concentration 12, replicate 3",19925
same,"Fluorescence intensity, fluorescence competitive binding assay, OBP11","SfurOBP11; ligand concentration 14, replicate 1",17235
same,"Fluorescence intensity, fluorescence competitive binding assay, OBP11","SfurOBP11; ligand concentration 14, replicate 2",18458
same,"Fluorescence intensity, fluorescence competitive binding assay, OBP11","SfurOBP11; ligand concentration 14, replicate 3",18680
same,"Fluorescence intensity, fluorescence competitive binding assay, OBP11","SfurOBP11; ligand concentration 16, replicate 1",16257
same,"Fluorescence intensity, fluorescence competitive binding assay, OBP11","SfurOBP11; ligand concentration 16, replicate 2",15961
same,"Fluorescence intensity, fluorescence competitive binding assay, OBP11","SfurOBP11; ligand concentration 16, replicate 3",16778
same,"Fluorescence intensity, fluorescence competitive binding assay, OBP11","SfurOBP11; ligand concentration 18, replicate 1",15893
same,"Fluorescence intensity, fluorescence competitive binding assay, OBP11","SfurOBP11; ligand concentration 18, replicate 2",16090
same,"Fluorescence intensity, fluorescence competitive binding assay, OBP11","SfurOBP11; ligand concentration 18, replicate 3",15799
same,"Fluorescence intensity, fluorescence competitive binding assay, OBP11","SfurOBP11; ligand concentration 20, replicate 1",15616
same,"Fluorescence intensity, fluorescence competitive binding assay, OBP11","SfurOBP11; ligand concentration 20, replicate 2",15707
same,"Fluorescence intensity, fluorescence competitive binding assay, OBP11","SfurOBP11; ligand concentration 20, replicate 3",14975
same,IC50,SfurOBP3,> 20 µM
same,"Fluorescence competitive binding assay, fluorescence intensity",SfurOBP3; ligand concentration 2,48626 and 49734 and 49512
same,"Fluorescence competitive binding assay, fluorescence intensity",SfurOBP3; ligand concentration 4,45649 and 45958 and 42870
same,"Fluorescence competitive binding assay, fluorescence intensity",SfurOBP3; ligand concentration 6,41915 and 48260 and 45013
same,"Fluorescence competitive binding assay, fluorescence intensity",SfurOBP3; ligand concentration 8,45442 and 45656 and 45548
same,"Fluorescence competitive binding assay, fluorescence intensity",SfurOBP3; ligand concentration 10,40904 and 43831 and 42892
same,"Fluorescence competitive binding assay, fluorescence intensity",SfurOBP3; ligand concentration 12,41218 and 40601 and 40113
same,"Fluorescence competitive binding assay, fluorescence intensity",SfurOBP3; ligand concentration 14,34957 and 35609 and 37985
same,"Fluorescence competitive binding assay, fluorescence intensity",SfurOBP3; ligand concentration 16,33728 and 34170 and 34618
same,"Fluorescence competitive binding assay, fluorescence intensity",SfurOBP3; ligand concentration 18,37828 and 32491 and 33581
same,"Fluorescence competitive binding assay, fluorescence intensity",SfurOBP3; ligand concentration 20,33910 and 32414 and 29949
same,IC50,SfurOBP2,> 20 µM
same,"Fluorescence competitive binding assay, OBP2 (raw fluorescence reading)","SfurOBP2; ligand concentration 2 (unit not given), replicate column 1 of 3",19770
same,"Fluorescence competitive binding assay, OBP2 (raw fluorescence reading)","SfurOBP2; ligand concentration 2 (unit not given), replicate column 2 of 3",19248
same,"Fluorescence competitive binding assay, OBP2 (raw fluorescence reading)","SfurOBP2; ligand concentration 2 (unit not given), replicate column 3 of 3",18506
same,"Fluorescence competitive binding assay, OBP2 (raw fluorescence reading)","SfurOBP2; ligand concentration 4 (unit not given), replicate column 1 of 3",19551
same,"Fluorescence competitive binding assay, OBP2 (raw fluorescence reading)","SfurOBP2; ligand concentration 4 (unit not given), replicate column 2 of 3",19781
same,"Fluorescence competitive binding assay, OBP2 (raw fluorescence reading)","SfurOBP2; ligand concentration 4 (unit not given), replicate column 3 of 3",18404
same,"Fluorescence competitive binding assay, OBP2 (raw fluorescence reading)","SfurOBP2; ligand concentration 6 (unit not given), replicate column 1 of 3",19561
same,"Fluorescence competitive binding assay, OBP2 (raw fluorescence reading)","SfurOBP2; ligand concentration 6 (unit not given), replicate column 2 of 3",18769
same,"Fluorescence competitive binding assay, OBP2 (raw fluorescence reading)","SfurOBP2; ligand concentration 6 (unit not given), replicate column 3 of 3",17857
same,"Fluorescence competitive binding assay, OBP2 (raw fluorescence reading)","SfurOBP2; ligand concentration 8 (unit not given), replicate column 1 of 3",18896
same,"Fluorescence competitive binding assay, OBP2 (raw fluorescence reading)","SfurOBP2; ligand concentration 8 (unit not given), replicate column 2 of 3",18816
same,"Fluorescence competitive binding assay, OBP2 (raw fluorescence reading)","SfurOBP2; ligand concentration 8 (unit not given), replicate column 3 of 3",16878
same,"Fluorescence competitive binding assay, OBP2 (raw fluorescence reading)","SfurOBP2; ligand concentration 10 (unit not given), replicate column 1 of 3",17416
same,"Fluorescence competitive binding assay, OBP2 (raw fluorescence reading)","SfurOBP2; ligand concentration 10 (unit not given), replicate column 2 of 3",17439
same,"Fluorescence competitive binding assay, OBP2 (raw fluorescence reading)","SfurOBP2; ligand concentration 10 (unit not given), replicate column 3 of 3",16747
same,"Fluorescence competitive binding assay, OBP2 (raw fluorescence reading)","SfurOBP2; ligand concentration 12 (unit not given), replicate column 1 of 3",16106
same,"Fluorescence competitive binding assay, OBP2 (raw fluorescence reading)","SfurOBP2; ligand concentration 12 (unit not given), replicate column 2 of 3",16534
same,"Fluorescence competitive binding assay, OBP2 (raw fluorescence reading)","SfurOBP2; ligand concentration 12 (unit not given), replicate column 3 of 3",16305
same,"Fluorescence competitive binding assay, OBP2 (raw fluorescence reading)","SfurOBP2; ligand concentration 14 (unit not given), replicate column 1 of 3",14820
same,"Fluorescence competitive binding assay, OBP2 (raw fluorescence reading)","SfurOBP2; ligand concentration 14 (unit not given), replicate column 2 of 3",14819
same,"Fluorescence competitive binding assay, OBP2 (raw fluorescence reading)","SfurOBP2; ligand concentration 14 (unit not given), replicate column 3 of 3",14820
same,"Fluorescence competitive binding assay, OBP2 (raw fluorescence reading)","SfurOBP2; ligand concentration 16 (unit not given), replicate column 1 of 3",13168
same,"Fluorescence competitive binding assay, OBP2 (raw fluorescence reading)","SfurOBP2; ligand concentration 16 (unit not given), replicate column 2 of 3",12294
same,"Fluorescence competitive binding assay, OBP2 (raw fluorescence reading)","SfurOBP2; ligand concentration 16 (unit not given), replicate column 3 of 3",13106
same,"Fluorescence competitive binding assay, OBP2 (raw fluorescence reading)","SfurOBP2; ligand concentration 18 (unit not given), replicate column 1 of 3",12788
same,"Fluorescence competitive binding assay, OBP2 (raw fluorescence reading)","SfurOBP2; ligand concentration 18 (unit not given), replicate column 2 of 3",12466
same,"Fluorescence competitive binding assay, OBP2 (raw fluorescence reading)","SfurOBP2; ligand concentration 18 (unit not given), replicate column 3 of 3",12554
same,"Fluorescence competitive binding assay, OBP2 (raw fluorescence reading)","SfurOBP2; ligand concentration 20 (unit not given), replicate column 1 of 3",12993
same,"Fluorescence competitive binding assay, OBP2 (raw fluorescence reading)","SfurOBP2; ligand concentration 20 (unit not given), replicate column 2 of 3",12815
same,"Fluorescence competitive binding assay, OBP2 (raw fluorescence reading)","SfurOBP2; ligand concentration 20 (unit not given), replicate column 3 of 3",12410
same,number of insects choosing hexane arm,S. furcifera adults,13
same,number of insects choosing volatilies arm,S. furcifera adults,13
same,number of insects failed (no choice),S. furcifera adults,14
